Consider eight molecules from patent publication EP4810579A1, “AQUEOUS COATING COMPOSITION” (Chugoku Marine Paints, Ltd., priority 2023, dated 2025).

SMILES strings stand for the structures.

A short description of the data set: Aqueous solubility of organic solvent, EPA830.7840 flask shaking method. The class given is physicochemical. As to conditions: 1 atm and 23°C. The source says: The upper limit of the aqueous solubility of the organic solvent (B) is not particularly limited. The organic solvent (B) may be, for example, a water-miscible organic solvent that can be mixed with water in an arbitrary amount. […] The aqueous solubility of the organic solvent (B) represents the maximum amount (g) of the organic solvent dissolved in 100 g of water.

For `OCc1ccccc1` [Benzyl alcohol], the Aqueous solubility is given as 4 g/100 g of water and the “amount of the organic solvent dissolved in 100 g of water” value (from here on “amount of the organic solvent dissolved”) is 4 g.

Consider `CCCCOCCOCCO` [Diethylene glycol monobutyl ether], for which the Aqueous solubility entry is listed as “miscible” and the “amount of the organic solvent dissolved” value is listed as “miscible”.

On to `COC(C)COC(C)CO` (stereo not drawn) [Dipropylene glycol monomethyl ether], for which the Aqueous solubility entry is listed as “miscible”.

Take `CCCOC(C)COC(C)CO` (stereo not drawn) [Dipropylene glycol monopropyl ether]: the Aqueous solubility was 18 g/100 g of water and the “amount of the organic solvent dissolved” value amounted to 18 g.

For the molecule `COCC(C)O` (stereo not drawn) [Propylene glycol monomethyl ether], the Aqueous solubility result was “miscible”.

Regarding `CCCCOC(C)COC(C)COC(C)CO` (stereo not drawn) [Tripropylene glycol monobutyl ether], the Aqueous solubility is 3 g/100 g of water and the “amount of the organic solvent dissolved” value is reported as 3 g.

Consider `OCCOc1ccccc1` [ethylene glycol monophenyl ether], for which the “amount of the organic solvent dissolved” value is 2.3 g.

`COC(C)COC(C)COC(C)CO` (stereo not drawn) [tripropylene glycol monomethyl ether]: the “amount of the organic solvent dissolved” value is given as “miscible”.
